Source: PubChem BioAssay (NCI)
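The concentration for 50% growth inhibition is given as GI50. TGI marks complete inhibition of growth.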

Columns and labels:
Test in all cases: NCI-60 cell line screen, 384-well format
COLO 205 colon = test system: COLO 205 colon
HCC-2998 colon = test system: HCC-2998 colon
HCT-15 colon = test system: HCT-15 colon
HS 578T breast = test system: HS 578T breast
LOX IMVI melanoma = test system: LOX IMVI melanoma
M14 melanoma = test system: M14 melanoma
MDA-MB-231 breast = test system: MDA-MB-231 breast
NCI-H522 lung = test system: NCI-H522 lung
OVCAR-5 ovarian = test system: OVCAR-5 ovarian
SK-MEL-2 melanoma = test system: SK-MEL-2 melanoma
SK-MEL-5 melanoma = test system: SK-MEL-5 melanoma
SK-OV-3 ovarian = test system: SK-OV-3 ovarian
SNB-75 CNS = test system: SNB-75 CNS

`C[C@@H]1CN(CC(=O)N2CC(C)(C)c3nc(CO)c(Cc4ccc(F)cc4)cc32)[C@@H](CN2CCOC[C@H]2C)CN1` gave a GI50 (COLO 205 colon) of 20.5 µM, a TGI (COLO 205 colon) of 47 µM and a GI50 (HCC-2998 colon) of 15.8 µM. The TGI (HCC-2998 colon) was 29.8 µM, the GI50 (HCT-15 colon) was 27.7 µM and the TGI (HCT-15 colon) was greater than 83.3 µM. The GI50 (HS 578T breast) was 7.75 µM, the TGI (HS 578T breast) was greater than 67.2 µM and the GI50 (LOX IMVI melanoma) was 17.6 µM. The TGI (LOX IMVI melanoma) was 31.5 µM, the GI50 (M14 melanoma) was 17.2 µM and the TGI (M14 melanoma) was 31.1 µM. It also gave a GI50 (MDA-MB-231 breast) of 0.103 µM, a TGI (MDA-MB-231 breast) of 2.39 µM and a GI50 (NCI-H522 lung) of 14.2 µM. For the same compound, the TGI (NCI-H522 lung) was 32.4 µM, the GI50 (OVCAR-5 ovarian) was 38.7 µM and the TGI (OVCAR-5 ovarian) was 99.8 µM. The TGI (SK-MEL-2 melanoma) was 14.6 µM, the GI50 (SK-MEL-5 melanoma) was 1.41 µM and the TGI (SK-MEL-5 melanoma) was 20.2 µM. The GI50 (SK-OV-3 ovarian) was less than 0.0207 µM, the TGI (SK-OV-3 ovarian) was 4.32 µM and the GI50 (SNB-75 CNS) was 16.3 µM. For the same compound, the TGI (SNB-75 CNS) was 41.6 µM.
